# Test results taken from ChEMBL document CHEMBL4699400, “Discovery of a novel kinase hinge binder fragment by dynamic undocking” (RSC Med Chem, 2020).
# Calls of active or inactive are those of the source. The calls are words filed in the database; no cut-off is given here.
# Assays:
# [1] = target: T1, Maternal embryonic leucine zipper kinase (Homo sapiens, UniProt Q14680); assay: Binding affinity to human N-terminal His-tagged MELK (1 to 337 residues) expressed in Escherichia coli BL21 pLysS at 50 uM by STD-NMR analysis
# Target sequence in this assay (Q14680 whole entry, looked up, the tested form may be a part): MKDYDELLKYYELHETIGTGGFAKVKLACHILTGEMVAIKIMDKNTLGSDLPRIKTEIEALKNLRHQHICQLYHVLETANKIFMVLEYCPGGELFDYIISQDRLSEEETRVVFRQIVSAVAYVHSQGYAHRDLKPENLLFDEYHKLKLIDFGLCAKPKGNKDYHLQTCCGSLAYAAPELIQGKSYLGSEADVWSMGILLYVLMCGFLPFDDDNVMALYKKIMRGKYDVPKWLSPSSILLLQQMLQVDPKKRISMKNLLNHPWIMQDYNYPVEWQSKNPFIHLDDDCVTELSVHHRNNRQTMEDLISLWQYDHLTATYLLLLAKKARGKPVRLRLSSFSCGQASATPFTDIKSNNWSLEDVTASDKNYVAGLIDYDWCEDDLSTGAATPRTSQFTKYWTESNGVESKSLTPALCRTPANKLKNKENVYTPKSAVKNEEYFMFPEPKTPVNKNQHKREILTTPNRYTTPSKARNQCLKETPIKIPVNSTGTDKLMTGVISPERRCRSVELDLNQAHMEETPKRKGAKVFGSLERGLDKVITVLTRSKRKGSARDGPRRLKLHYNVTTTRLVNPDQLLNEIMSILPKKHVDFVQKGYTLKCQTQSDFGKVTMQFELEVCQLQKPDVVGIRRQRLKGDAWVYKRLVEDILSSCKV
# [2] = target: T1, Maternal embryonic leucine zipper kinase; assay: Displacement of kinase tracer 236 from human N-terminal His-tagged MELK (1 to 337 residues) expressed in Escherichia coli BL21 pLysS by microscale thermophoresis assay
# Target sequence in this assay (Q14680 whole entry, the tested form may be a part): as the sequence (Q14680 whole entry, looked up, the tested form may be a part) above
smiles,measurement,setting,value
Nc1cccc2cc[nH]c(=O)c12,Activity,[1],Active
same,EC50,[2],21.1 µM
same,Ki,[2],5.47 µM
